In brackets after ≈: the same amount, converted by molar mass.
Assays:
MDA-MB-468 = experiment: MTT cell proliferation assay, MDA-MB-468; assay type: cell-based; settings: Homo sapiens, 48 h, read-out: In vitro cytotoxic activity IC50, MDA-MB-48
Procedure: (§1) Compounds 5a–o were evaluated for their cytotoxic activity in vitro against some human cancer cell lines, including A549, HCC1937 and MDA-MB-468 by applying a MTT colorimetric assay. Doxorubicin was used as positive control. The calculated IC50 values were reported differently according to the different cancer cells.
(§2) All target compounds were evaluated for their cytotoxic activities (%) in vitro against human cancer cell lines, including A549, HCC1937 and MDA-MB-468, by applying the MTT colorimetric assay. The cell concentration was adjusted to 2 × 10^4/mL using complete culture medium, then 100 μL cell suspension was inoculated in each well of a 96-well culture plate and cultured for 24 h. All the target compounds were adjusted to different concentrations ranging from 1.25 μmol/L to 40 μmol/L, then 100 μL solution was added to each well of 96-well culture plate and 100 μL complete culture medium was added to the control group. Cells were placed under 5% CO2 at 37 °C and cultured for 48 h. Then 5 mg/mL MTT 20 μL was added to each well of 96-well culture plate and cultured for another 2~4 h. The medium was removed and 150 μL DMSO was added to each well of 96-well culture plate, then oscillated and mixed 15 min. The absorbance (A) of each well was measured in terms of optical density at a wavelength of 570 nm, each cell viability assay was performed in triplicate and taken the average value, then calculated the IC50. Doxorubicin was the positive control drug.

A549 = experiment: MTT cell proliferation assay, A549; assay type: cell-based; settings: Homo sapiens, 48 h, read-out: In vitro cytotoxic activity IC50, A549
Procedure: as §1, §2

HCC1937 = experiment: MTT cell proliferation assay, HCC1937; assay type: cell-based; settings: Homo sapiens, 48 h, read-out: In vitro cytotoxic activity IC50, HCC1937
Procedure: as §1, §2

[1] = In vitro cytotoxic activity, Hek293; assay type: cell-based; settings: human, Hek293 cells; unit inferred
Source text: Table 1 In vitro cytotoxic activity of target compounds: 5a–o. | column: Hek293

[2] = tested on: A549, HCC1937 and MDA-MB-468 cell lines; experiment: MTT assay, statements over the three cell lines; assay type: cell-based, human; settings: for IC50: Homo sapiens, range over the three cell lines and over 5a and 5b, read-out: IC50 toward the A549, HCC1937 and MDA-MB-468 cell lines; for Potency compared to 5a and 5b / Activity toward the cell lines (in words): SAR discussion
Procedure: as §1, §2

HCC1937 cells = experiment: Annexin V-FITC/PI flow cytometry apoptosis; assay type: cell-based, human; settings: control 6.7%
Procedure: When the concentration of 5b was 7.5 μM, the proportion of apoptotic cells was 11.4%. When the concentration was 10 μM, the proportion of apoptotic cells was 13.4%. When the concentration was 15 μM, the proportion of apoptotic cells was 12.9%. When the concentration was 20 μM, the proportion of apoptotic cells was 29%. The proportion of apoptotic cells in control group was 6.7%. As the concentration increased, the number of apoptotic cells increased gradually and the number of apoptotic cells and concentration were directly proportional, although there was no significant difference between 10 μM and 15 μM.
The Annexin V-FITC apoptosis detection kit was used to detect apoptotic cells according to the manufacturer’s protocol. Briefly, cells were gently washed with PBS and collected using trypsinization, disaggregated to a single cell suspension and incubated with 5 μL of Annexin V-FITC and 10 μL of a PI solution for 15 min in the dark. The apoptotic cells were detected using a flow cytometer (BD, San Diego, CA, USA), then quantified and the percentage of apoptotic cells measured.

KM20L2 = tested on: KM20L2; set-up: method as in PMID 9051914; settings: cited from earlier work
SK-MEL-5 = tested on: SK-MEL-5; set-up: method as in PMID 9051914; settings: cited from earlier work

Row | IC50 [2] [µM] | melting point [°C] | SMILES | IC50 (MDA-MB-468) [µM] | IC50 (A549) [µM] | IC50 (HCC1937) [µM] | IC50 [1] [µM] | Proportion of apoptotic cells (HCC1937 cells; HCC1937, 7.5 μM) [%] | Proportion of apoptotic cells (HCC1937 cells; HCC1937, 10 μM) [%] | Proportion of apoptotic cells (HCC1937 cells; HCC1937, 15 μM) [%] | Proportion of apoptotic cells (HCC1937 cells; HCC1937, 20 μM) [%] | Potency compared to 5a and 5b [2] | Activity toward the cell lines (in words) [2] | ED50 (KM20L2) [µg/mL] | ED50 (SK-MEL-5) [µg/mL]
1 | 2.6 to 9 | 198.5 to 200.1 | O=c1[nH]c2cc(S(=O)(=O)N3CCOCC3)ccc2n1Cc1ccccc1 [5a, Benzyl-5-(morpholinosulfonyl)-1H-benzo[d]imidazol-2(3H)-one] | 9 ± 0.67 | 5.2 ± 0.35 | 7.8 ± 0.49 | > 10000 | – | – | – | – | – | – | – | –
2 | 2.6 to 9 | 107.2 to 108.1 | CN1CCN(S(=O)(=O)c2ccc3c(c2)[nH]c(=O)n3Cc2ccccc2)CC1 [5b, Benzyl-5-(4-methylpiperazin-1-ylsulfonyl)-1H-benzo[d]imidazol-2(3H)-one] | 6.3 ± 0.45 | 3.1 ± 0.17 | 2.6 ± 0.21 | 293 | 11.4 | 13.4 | 12.9 | 29 | – | – | – | –
3 | – | 166.7 to 167.2 | O=c1[nH]c2cc(S(=O)(=O)NC3CCCCC3)ccc2n1Cc1ccccc1 [5c, Benzyl-N-cyclohexyl-2-oxo-2,3-dihydro-1H-benzo[d]imidazole-5-sulfonamide] | > 200 | 88 ± 6.1 | 105 ± 8.9 | 248 | – | – | – | – | equivalent to 10-fold inferior potency | – | – | –
4 | – | 189.4 to 190.5 | O=c1[nH]c2cc(S(=O)(=O)N3CCCCC3)ccc2n1Cc1ccccc1 [5d, Benzyl-5-(piperidin-1-ylsulfonyl)-1H-benzo[d]imidazol-2(3H)-one] | 73 ± 6.9 | 77 ± 6.8 | 85 ± 7.1 | 756 | – | – | – | – | equivalent to 10-fold inferior potency | – | – | –
5 | – | 160.6 to 185.9 | O=c1[nH]c2cc(S(=O)(=O)NCc3ccccc3)ccc2n1Cc1ccccc1 [5e, N,1-Dibenzyl-2-oxo-2,3-dihydro-1H-benzo[d]imidazole-5-sulfonamide] | > 200 | > 200 | 127 ± 9.9 | > 10000 | – | – | – | – | – | almost no activity | – | –
6 | – | 85.2 to 86.3 | O=C(c1ccccc1)c1cccc(NS(=O)(=O)c2ccc3c(c2)[nH]c(=O)n3Cc2ccccc2)c1 [5f, N-(3-Benzoylphenyl)-1-benzyl-2-oxo-2,3-dihydro-1H-benzo[d]imidazole-5-sulfonamide] | 82 ± 6.1 | > 200 | > 200 | > 10000 | – | – | – | – | – | almost no activity | – | –
7 | – | 91.9 to 93.3 | O=c1[nH]c2cc(S(=O)(=O)Nc3ccccc3)ccc2n1Cc1ccccc1 [5g, Benzyl-2-oxo-N-phenyl-2,3-dihydro-1H-benzo[d]imidazole-5-sulfonamide] | > 200 | > 200 | 152 ± 9.8 | 2000 | – | – | – | – | – | almost no activity | – | –
8 | – | 168.6 to 170.3 | O=c1[nH]c2cc(S(=O)(=O)NC3CC3)ccc2n1Cc1ccccc1 [5h, Benzyl-N-cyclopropyl-2-oxo-2,3-dihydro-1H-benzo[d]imidazole-5-sulfonamide] | > 200 | > 200 | > 200 | 370 | – | – | – | – | – | almost no activity | – | –
9 | – | 173.4 to 174.7 | CC(C)NS(=O)(=O)c1ccc2c(c1)[nH]c(=O)n2Cc1ccccc1 [5i, Benzyl-N-isopropyl-2-oxo-2,3-dihydro-1H-benzo[d]imidazole-5-sulfonamide] | > 200 | > 200 | > 200 | 709 | – | – | – | – | – | almost no activity | – | –
10 | – | 223.6 to 225.7 | Cc1ccccc1NS(=O)(=O)c1ccc2c(c1)[nH]c(=O)n2Cc1ccccc1 [5j, Benzyl-2-oxo-N-o-tolyl-2,3-dihydro-1H-benzo[d]imidazole-5-sulfonamide] | > 200 | > 200 | > 200 | 666 | – | – | – | – | – | almost no activity | – | –
11 | – | 187 to 188.5 | O=c1[nH]c2cc(S(=O)(=O)NC3CCCCC3)ccc2n1CCc1ccccc1 [5k, N-Cyclohexyl-2-oxo-1-phenethyl-2,3-dihydro-1H-benzo[d]imidazole-5-sulfonamide] | 135 ± 9.7 | 116 ± 7.6 | > 200 | 384 | – | – | – | – | – | – | – | –
12 | – | 218.2 to 219.6 | CN1CCN(S(=O)(=O)c2ccc3c(c2)[nH]c(=O)n3CCc2ccccc2)CC1 [5l, 5-(4-Methylpiperazin-1-ylsulfonyl)-1-phenethyl-1H-benzo[d]imidazol-2(3H)-one] | 22 ± 1.6 | 15 ± 1.1 | 18 ± 1.2 | 6310 | – | – | – | – | – | – | – | –
13 | – | 217.8 to 218.9 | O=c1[nH]c2cc(S(=O)(=O)NC3CC3)ccc2n1CCc1ccccc1 [5m, N-Cyclopropyl-2-oxo-1-phenethyl-2,3-dihydro-1H-benzo[d]imidazole-5-sulfonamide] | > 200 | > 200 | > 200 | 448 | – | – | – | – | – | – | – | –
14 | – | 183.3 to 184.3 | O=c1[nH]c2cc(S(=O)(=O)N3CCCCC3)ccc2n1CCc1ccccc1 [5n, Phenethyl-5-(piperidin-1-ylsulfonyl)-1H-benzo[d]imidazol-2(3H)-one] | 12 ± 1.02 | 16 ± 0.9 | 22 ± 1.3 | > 10000 | – | – | – | – | – | – | – | –
15 | – | 102.3 to 104.1 | O=c1[nH]c2cc(S(=O)(=O)N3CCOCC3)ccc2n1CCc1ccccc1 [5o, 5-(Morpholinosulfonyl)-1-phenethyl-1H-benzo[d]imidazol-2(3H)-one] | 15 ± 0.93 | 9.7 ± 0.88 | 11 ± 0.71 | > 10000 | – | – | – | – | – | – | – | –
16 | – | – | O=C1N[C@H]2n3c(cc(Br)c3Br)C(=O)N3CCC[C@]23N1 [Dibromophakellstatin] | – | – | – | – | – | – | – | – | – | – | 0.11 (≈ 0.282 µM) | 0.11 (≈ 0.282 µM)
17 | – | – | COc1cccc2c1C(=O)c1c(O)c3c(c(O)c1C2=O)C[C@@](O)(C(=O)CO)C[C@@H]3O[C@H]1C[C@H](N)[C@H](O)[C@H](C)O1 [Doxorubicin, reference compound] | 2.7 ± 0.19 | 2.5 ± 0.13 | 4.8 ± 0.22 | 12.2 | – | – | – | – | – | – | – | –

From paper PMC6273811, “Synthesis and Antitumor Evaluation of Novel 5-Hydrosulfonyl-1H-benzo[d]imidazol-2(3H)-one Derivatives” (Molecules, 2016)
